Measurements as given in patent US7214495B2, “Screening method” (Takeda Pharmaceutical Company Limited, priority 2002, dated 2007).

Test system: mouse insulinoma MIN6 cells
Assay: Insulin secretion from MIN6 cells with free fatty acid-BSA mixture (RIA)
Type: cell-based
Conditions: 300 μM to 1000 μM; fatty acid-BSA 4:1; 11 mM glucose; 90 (or 60) minutes
Experimental: The MIN6 cells were cultured in DMEM (high glucose, Invitrogen) containing 15% FCS (Trace Scientific Ltd.), 55 μM 2-mercaptoethanol, 100 U/ml penicillin and 100 μg/ml streptomycin, unless otherwise indicated. MIN6 cells were plated in a 96-well plate in 10^5 cells/well, followed by incubation at 37° C. for 3 days in a CO2 incubator adjusted to a concentration of 5% CO2. The medium was replaced by RPMI1640 (glucose free, Invitrogen) containing 10% FCS (Trace Scientific Ltd.), 5.5 mM glucose, 100 U/ml penicillin and 100 μg/ml streptomycin, followed by incubation for further 24 hours. After the medium was removed by suction, a solution mixture of free fatty acid-bovine serum albumin (BSA) (in a molar ratio of 4:1) diluted with RPMI1640 (glucose free, Invitrogen) containing 10% FCS (Trace Scientific Ltd.), 11 mM glucose, 100 U/ml penicillin and 100 μg/ml streptomycin was added to the cells, followed by reacting in a CO2 incubator adjusted to a 5% CO2 concentration at 37° C. for 90 minutes (or 60 minutes). After the reaction, the 96-well plate was centrifuged at 1500 rpm for 5 minutes and the culture supernatant was then recovered. The amount of insulin secreted into the culture supernatant was determined by radioimmunoassay (RIA) using the rat insulin RIA system (Amersham Pharmacia).

| SMILES | insulin secretion by MIN6 cells |
| --- | --- |
| CCCCCCCC/C=C\CCCCCCCC(=O)O [Oleic acid (C18:1), Oleic acid] | promoted |
| CCCCC/C=C\C/C=C\C/C=C\CCCCC(=O)O [γ-Linolenic acid (C18:3), γ-Linolenic acid] | promoted |
